A word on the inhibition: it is the change of the read-out against control, counted positive when it falls.

The target of series [1] is 3',5'-cyclic-AMP phosphodiesterase 4C (Homo sapiens) (UniProt Q08493). Briefly: Inhibition of PDE4C1 (unknown origin) at 10 uM relative to control.
Series [2] concerns the target T1, SIRT7 (Homo sapiens, UniProt Q9NRC8).
T1 sequence (Q9NRC8 whole entry): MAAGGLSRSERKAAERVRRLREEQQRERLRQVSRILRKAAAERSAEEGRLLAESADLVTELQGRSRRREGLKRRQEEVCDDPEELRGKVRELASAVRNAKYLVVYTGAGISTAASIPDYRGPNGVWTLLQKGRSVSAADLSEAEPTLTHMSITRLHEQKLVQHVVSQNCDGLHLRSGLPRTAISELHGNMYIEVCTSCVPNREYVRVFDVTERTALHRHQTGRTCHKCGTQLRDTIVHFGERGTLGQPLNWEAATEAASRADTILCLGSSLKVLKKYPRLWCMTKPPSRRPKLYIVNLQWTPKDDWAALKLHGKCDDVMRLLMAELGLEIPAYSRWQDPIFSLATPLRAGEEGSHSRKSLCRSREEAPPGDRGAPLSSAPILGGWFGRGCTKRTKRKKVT
In words: Inhibition of SIRT7 (unknown origin) at 10 uM relative to control.

Series [3] addresses HDAC9 (Homo sapiens, UniProt Q9UKV0). Briefly: Inhibition of HDAC9 (unknown origin) at 10 uM relative to control.
Series [4] addresses CYP2C19 (Homo sapiens, UniProt P33261). In words: Inhibition of CYP2C19 (unknown origin) at 10 uM relative to control. In kind it is ADME.
Series [5] in a line: Cytotoxicity against human MCF7 cells assessed as cell growth inhibition at 10 uM after 48 hrs relative to control. In kind it is cell-based.
The target of series [6] is Aurora B (Homo sapiens, UniProt Q96GD4). Briefly: Inhibition of Aurora B (unknown origin) at 10 uM relative to control.
The nature of series [7]: Cytotoxicity against human HEK293 cells assessed as cell growth inhibition at 10 uM after 48 hrs relative to control. In kind it is cell-based.
Series [8] has as its target CYP3A4 (Homo sapiens, UniProt P08684). In words: Inhibition of CYP3A4 (unknown origin) at 10 uM relative to control. In kind it is ADME.
Series [9] in a line: Cytotoxicity against human HEK293 cells assessed as cell growth inhibition at 10 uM after 24 hrs relative to control. In kind it is cell-based.
Series [10] is described as follows: Cytotoxicity against human MCF7 cells assessed as cell growth inhibition at 10 uM after 24 hrs relative to control. In kind it is cell-based.
Series [11] has as its target T2, CYP1A2 (Homo sapiens, UniProt P05177).
T2 sequence (P05177 whole entry): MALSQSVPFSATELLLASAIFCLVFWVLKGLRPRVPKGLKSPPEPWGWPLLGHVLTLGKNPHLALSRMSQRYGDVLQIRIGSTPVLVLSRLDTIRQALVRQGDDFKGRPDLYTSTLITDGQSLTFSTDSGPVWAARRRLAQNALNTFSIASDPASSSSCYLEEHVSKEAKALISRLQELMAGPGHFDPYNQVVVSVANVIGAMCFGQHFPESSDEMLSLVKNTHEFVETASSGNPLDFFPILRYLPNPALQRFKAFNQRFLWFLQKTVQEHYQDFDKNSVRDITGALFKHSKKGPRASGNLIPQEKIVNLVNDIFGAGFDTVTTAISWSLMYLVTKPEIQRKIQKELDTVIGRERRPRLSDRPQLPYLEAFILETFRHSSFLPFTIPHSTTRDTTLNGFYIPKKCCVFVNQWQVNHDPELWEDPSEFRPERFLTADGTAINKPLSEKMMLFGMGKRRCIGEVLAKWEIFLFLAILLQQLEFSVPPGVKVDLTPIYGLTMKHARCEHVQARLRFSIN
In words: Inhibition of CYP1A2 (unknown origin) at 10 uM relative to control. In kind it is ADME.

In series [12] the target is CYP2C9 (Homo sapiens, UniProt P11712). Briefly: Inhibition of CYP2C9 (unknown origin) at 10 uM relative to control. In kind it is ADME.
Sequence of CYP2C9 (P11712 whole entry): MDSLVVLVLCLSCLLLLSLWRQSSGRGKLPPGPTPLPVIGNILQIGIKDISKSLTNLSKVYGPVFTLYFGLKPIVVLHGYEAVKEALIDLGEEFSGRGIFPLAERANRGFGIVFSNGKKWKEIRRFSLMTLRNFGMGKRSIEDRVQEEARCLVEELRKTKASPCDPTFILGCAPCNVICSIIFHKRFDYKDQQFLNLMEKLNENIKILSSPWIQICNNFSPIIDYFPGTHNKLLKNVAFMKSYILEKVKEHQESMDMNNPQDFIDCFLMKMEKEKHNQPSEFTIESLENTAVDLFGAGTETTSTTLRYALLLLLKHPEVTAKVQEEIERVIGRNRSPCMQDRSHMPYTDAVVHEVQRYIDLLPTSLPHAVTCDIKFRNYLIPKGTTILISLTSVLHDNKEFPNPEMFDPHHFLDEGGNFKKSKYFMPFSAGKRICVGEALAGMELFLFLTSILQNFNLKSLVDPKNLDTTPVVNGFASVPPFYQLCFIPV
Series [13] has as its target CYP2D6 (Homo sapiens, UniProt P10635). Briefly: Inhibition of CYP2D6 (unknown origin) at 10 uM relative to control. In kind it is ADME.
A short description of series [14]: Cytotoxicity against human hTERT cells assessed as cell growth inhibition at 10 uM after 48 hrs relative to control. In kind it is cell-based, hTERT-BJ.
For series [15], the target named is HDAC4 (Homo sapiens, UniProt P56524). In words: Inhibition of HDAC4 (unknown origin) at 10 uM relative to control.
Sequence of HDAC4 (P56524 whole entry): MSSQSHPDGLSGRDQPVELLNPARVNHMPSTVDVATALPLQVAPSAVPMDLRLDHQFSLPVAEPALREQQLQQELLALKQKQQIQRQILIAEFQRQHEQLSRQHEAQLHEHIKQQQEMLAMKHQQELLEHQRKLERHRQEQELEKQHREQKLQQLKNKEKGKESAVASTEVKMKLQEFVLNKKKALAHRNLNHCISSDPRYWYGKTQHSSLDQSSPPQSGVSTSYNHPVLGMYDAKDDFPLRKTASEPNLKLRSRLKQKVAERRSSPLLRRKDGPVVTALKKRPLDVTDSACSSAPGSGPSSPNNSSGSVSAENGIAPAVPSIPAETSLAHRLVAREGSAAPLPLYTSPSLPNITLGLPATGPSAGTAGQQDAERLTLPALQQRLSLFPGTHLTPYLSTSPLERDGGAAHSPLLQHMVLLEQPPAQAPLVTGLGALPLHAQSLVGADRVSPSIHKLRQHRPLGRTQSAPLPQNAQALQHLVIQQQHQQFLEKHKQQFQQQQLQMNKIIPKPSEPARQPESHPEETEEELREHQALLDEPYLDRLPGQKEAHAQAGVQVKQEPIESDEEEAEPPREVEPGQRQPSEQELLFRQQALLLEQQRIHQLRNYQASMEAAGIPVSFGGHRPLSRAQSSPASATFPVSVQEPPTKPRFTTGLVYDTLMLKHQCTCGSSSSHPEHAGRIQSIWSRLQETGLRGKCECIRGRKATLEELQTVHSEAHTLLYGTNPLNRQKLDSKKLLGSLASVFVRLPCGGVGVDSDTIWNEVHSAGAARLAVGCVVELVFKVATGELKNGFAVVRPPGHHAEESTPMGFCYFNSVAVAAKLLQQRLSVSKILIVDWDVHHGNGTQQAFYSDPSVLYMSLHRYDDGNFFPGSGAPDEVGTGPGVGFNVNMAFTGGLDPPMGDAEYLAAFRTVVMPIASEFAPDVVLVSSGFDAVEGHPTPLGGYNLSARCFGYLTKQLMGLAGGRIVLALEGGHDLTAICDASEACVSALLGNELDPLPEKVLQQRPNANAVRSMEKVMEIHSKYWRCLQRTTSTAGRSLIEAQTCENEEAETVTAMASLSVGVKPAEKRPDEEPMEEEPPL
The target in series [16] is hERG (KCNH2) (Homo sapiens, UniProt Q12809). Briefly: Inhibition of human ERG at 10 uM by fluorescence polarization assay relative to control.
Sequence of hERG (KCNH2) (Q12809 whole entry): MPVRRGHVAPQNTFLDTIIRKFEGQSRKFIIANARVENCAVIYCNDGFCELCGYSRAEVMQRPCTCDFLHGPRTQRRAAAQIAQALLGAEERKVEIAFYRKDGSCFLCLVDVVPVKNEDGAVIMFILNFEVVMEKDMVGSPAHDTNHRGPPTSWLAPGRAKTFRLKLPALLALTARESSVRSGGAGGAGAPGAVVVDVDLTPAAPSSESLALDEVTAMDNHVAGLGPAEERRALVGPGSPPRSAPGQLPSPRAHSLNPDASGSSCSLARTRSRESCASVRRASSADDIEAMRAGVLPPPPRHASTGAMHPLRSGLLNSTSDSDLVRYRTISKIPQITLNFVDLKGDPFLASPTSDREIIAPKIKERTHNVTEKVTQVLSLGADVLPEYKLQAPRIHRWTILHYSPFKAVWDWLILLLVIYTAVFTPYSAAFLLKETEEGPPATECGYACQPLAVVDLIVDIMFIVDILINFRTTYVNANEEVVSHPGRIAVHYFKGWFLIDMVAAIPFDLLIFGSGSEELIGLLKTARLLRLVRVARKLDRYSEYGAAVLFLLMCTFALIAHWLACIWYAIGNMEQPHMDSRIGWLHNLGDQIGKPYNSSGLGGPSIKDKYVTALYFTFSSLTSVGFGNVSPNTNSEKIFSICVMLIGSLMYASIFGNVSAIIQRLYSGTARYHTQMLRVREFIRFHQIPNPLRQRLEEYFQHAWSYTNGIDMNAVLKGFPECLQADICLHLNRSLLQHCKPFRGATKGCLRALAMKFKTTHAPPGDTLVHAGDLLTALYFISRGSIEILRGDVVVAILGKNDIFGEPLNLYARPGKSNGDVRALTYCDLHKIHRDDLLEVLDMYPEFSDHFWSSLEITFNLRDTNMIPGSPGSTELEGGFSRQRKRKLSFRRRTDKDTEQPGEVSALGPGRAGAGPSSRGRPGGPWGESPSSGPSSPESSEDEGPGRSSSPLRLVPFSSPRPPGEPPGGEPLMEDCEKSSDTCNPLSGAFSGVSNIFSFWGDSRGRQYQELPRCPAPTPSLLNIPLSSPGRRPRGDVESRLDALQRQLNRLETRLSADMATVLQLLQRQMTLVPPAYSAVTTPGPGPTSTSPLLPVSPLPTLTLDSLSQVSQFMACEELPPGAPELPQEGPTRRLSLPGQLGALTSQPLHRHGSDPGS
Series [17] can be described thus: Cytotoxicity against human U2OS cells assessed as cell growth inhibition at 10 uM after 48 hrs relative to control. In kind it is cell-based.
A short description of series [18]: Cytotoxicity against human U2OS cells assessed as cell growth inhibition at 10 uM after 24 hrs relative to control. In kind it is cell-based.
For series [19], the target named is T3, HDAC6 (Homo sapiens, UniProt Q9UBN7).
T3 sequence (Q9UBN7 whole entry): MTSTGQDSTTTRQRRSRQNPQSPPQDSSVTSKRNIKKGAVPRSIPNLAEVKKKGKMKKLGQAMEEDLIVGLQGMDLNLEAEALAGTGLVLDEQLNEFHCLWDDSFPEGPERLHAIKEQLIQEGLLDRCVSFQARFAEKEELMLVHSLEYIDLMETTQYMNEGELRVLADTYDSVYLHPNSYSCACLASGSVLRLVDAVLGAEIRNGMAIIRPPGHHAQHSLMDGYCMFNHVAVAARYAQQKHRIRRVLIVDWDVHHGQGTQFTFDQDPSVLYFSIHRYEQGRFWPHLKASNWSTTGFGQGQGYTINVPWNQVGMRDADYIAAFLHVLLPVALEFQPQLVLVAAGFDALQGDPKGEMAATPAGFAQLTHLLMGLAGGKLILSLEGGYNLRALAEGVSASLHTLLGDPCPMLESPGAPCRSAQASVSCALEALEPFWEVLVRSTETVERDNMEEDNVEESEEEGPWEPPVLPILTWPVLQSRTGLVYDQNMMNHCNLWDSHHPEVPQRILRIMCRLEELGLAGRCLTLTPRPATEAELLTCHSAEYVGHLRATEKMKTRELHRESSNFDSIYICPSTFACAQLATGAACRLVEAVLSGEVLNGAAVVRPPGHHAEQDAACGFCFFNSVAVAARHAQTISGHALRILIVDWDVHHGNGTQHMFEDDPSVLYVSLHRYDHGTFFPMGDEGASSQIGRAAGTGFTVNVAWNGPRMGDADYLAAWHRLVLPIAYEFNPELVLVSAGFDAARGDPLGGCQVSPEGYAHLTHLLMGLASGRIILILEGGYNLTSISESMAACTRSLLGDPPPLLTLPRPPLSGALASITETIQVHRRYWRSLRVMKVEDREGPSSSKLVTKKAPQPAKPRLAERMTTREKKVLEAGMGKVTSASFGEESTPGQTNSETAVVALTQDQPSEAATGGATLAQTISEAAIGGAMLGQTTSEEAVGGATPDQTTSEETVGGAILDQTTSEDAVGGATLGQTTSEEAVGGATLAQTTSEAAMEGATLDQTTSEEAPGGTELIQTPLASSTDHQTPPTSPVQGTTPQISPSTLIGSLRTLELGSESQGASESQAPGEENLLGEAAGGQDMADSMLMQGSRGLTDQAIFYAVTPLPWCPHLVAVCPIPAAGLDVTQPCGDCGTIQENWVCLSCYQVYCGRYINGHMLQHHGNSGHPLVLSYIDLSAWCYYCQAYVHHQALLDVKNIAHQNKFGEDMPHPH
In words: Inhibition of HDAC6 (unknown origin) at 10 uM relative to control.

Series [20] addresses T4, HDAC8 (Homo sapiens, UniProt Q9BY41).
T4 sequence (Q9BY41 whole entry): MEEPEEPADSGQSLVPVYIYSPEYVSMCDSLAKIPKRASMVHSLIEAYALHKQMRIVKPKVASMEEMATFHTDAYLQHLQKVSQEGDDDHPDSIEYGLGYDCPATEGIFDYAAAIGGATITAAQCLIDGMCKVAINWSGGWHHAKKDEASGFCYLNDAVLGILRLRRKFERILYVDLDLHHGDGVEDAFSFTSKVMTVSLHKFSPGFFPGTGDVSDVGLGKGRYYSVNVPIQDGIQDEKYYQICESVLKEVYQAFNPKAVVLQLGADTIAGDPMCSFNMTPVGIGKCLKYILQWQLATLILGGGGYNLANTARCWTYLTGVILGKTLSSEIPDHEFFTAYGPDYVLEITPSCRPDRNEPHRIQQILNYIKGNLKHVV
In words: Inhibition of HDAC8 (unknown origin) at 10 uM relative to control.

The nature of series [21]: Cytotoxicity against human hTERT cells assessed as cell growth inhibition at 10 uM after 24 hrs relative to control. In kind it is cell-based, hTERT-BJ.

Sequence of 3',5'-cyclic-AMP phosphodiesterase 4C (Homo sapiens) (Q08493 whole entry): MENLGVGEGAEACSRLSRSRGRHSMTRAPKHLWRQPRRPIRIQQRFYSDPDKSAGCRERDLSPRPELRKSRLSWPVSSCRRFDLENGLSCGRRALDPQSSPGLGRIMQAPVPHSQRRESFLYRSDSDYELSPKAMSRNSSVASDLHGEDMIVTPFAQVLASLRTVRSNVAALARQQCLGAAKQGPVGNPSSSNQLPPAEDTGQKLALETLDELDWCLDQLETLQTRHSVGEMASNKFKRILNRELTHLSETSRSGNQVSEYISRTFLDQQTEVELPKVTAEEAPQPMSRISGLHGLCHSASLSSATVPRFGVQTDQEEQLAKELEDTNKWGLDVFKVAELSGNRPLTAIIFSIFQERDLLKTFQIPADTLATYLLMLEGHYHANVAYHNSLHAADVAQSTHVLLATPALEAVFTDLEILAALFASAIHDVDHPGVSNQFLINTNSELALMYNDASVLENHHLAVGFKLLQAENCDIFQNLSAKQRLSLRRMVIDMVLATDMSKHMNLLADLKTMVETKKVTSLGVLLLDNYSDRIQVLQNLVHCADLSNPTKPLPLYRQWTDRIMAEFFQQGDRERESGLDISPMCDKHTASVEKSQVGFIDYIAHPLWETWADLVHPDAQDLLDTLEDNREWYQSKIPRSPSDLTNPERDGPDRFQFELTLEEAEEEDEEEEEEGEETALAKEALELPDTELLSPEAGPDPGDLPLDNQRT
Sequence of CYP3A4 (P08684 whole entry): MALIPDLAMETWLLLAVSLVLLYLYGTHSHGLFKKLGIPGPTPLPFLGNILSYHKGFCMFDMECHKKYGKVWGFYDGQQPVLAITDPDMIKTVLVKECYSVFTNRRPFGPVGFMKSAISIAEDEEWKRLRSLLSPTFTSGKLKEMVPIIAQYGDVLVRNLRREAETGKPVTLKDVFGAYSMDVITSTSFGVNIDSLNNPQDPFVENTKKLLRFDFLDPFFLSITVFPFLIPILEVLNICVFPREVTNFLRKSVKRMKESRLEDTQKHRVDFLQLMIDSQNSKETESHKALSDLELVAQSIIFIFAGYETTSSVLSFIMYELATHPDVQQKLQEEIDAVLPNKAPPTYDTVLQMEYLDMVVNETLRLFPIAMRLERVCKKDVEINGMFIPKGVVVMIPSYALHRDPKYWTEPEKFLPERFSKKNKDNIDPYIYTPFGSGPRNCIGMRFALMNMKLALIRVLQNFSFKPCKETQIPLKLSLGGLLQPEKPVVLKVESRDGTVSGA
Sequence of HDAC9 (Q9UKV0 whole entry): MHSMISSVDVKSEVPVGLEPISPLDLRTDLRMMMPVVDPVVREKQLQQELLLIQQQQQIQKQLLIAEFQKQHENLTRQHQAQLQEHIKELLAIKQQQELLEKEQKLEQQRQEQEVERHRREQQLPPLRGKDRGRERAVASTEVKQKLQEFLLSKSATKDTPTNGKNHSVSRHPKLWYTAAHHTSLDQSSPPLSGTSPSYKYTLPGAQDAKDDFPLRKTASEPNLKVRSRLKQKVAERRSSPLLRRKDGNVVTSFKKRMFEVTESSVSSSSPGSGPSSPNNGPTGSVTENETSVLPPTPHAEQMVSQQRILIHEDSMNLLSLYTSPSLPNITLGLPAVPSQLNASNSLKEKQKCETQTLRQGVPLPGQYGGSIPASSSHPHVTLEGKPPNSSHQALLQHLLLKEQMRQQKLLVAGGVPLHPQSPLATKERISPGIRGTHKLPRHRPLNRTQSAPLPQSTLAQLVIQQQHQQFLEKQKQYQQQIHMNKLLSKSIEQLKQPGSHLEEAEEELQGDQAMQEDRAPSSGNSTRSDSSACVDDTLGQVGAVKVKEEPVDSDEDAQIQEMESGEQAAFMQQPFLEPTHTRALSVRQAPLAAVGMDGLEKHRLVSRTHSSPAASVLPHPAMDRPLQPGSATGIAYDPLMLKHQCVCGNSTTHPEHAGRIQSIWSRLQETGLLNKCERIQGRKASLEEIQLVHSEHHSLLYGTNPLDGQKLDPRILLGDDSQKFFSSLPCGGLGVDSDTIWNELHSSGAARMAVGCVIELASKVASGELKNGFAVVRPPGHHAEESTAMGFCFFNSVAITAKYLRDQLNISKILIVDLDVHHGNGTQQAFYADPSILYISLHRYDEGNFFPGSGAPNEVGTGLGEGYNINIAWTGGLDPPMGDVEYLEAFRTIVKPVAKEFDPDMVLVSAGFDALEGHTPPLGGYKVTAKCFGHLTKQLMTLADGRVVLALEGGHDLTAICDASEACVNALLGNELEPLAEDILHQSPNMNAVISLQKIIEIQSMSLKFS

As for `CCNc1ccc(Cc2ccc(OCC(=O)O)cc2)cc1C(C)C`, the inhibition in series [1] is under 50%. The inhibition at 10 µM in series [2] is under 50%; in series [3] it was under 50%; in series [4], over 91%; in series [6], under 50%; in [8], over 91%; in series [11], over 91%. The inhibition at 10 µM is over 91% in [12]; 51% in series [13]; under 50% in series [15]; over 91% in series [16]; under 50% in series [19]; under 50% in series [20]. For the same molecule, the inhibition at 48 h, 10 µM in [5] is 51%; in [7], under 50%; in series [14], under 50%; in [17] it was under 50%. In addition, the inhibition at 24 h, 10 µM in series [9] is under 50%; in series [10], 65%; in series [18], under 50%; in series [21], 51%.
Regarding `Cc1cc(OCCN)cc(C)c1Cc1ccc(O)cc1`, the inhibition in [1] is under 50%. Besides, the inhibition at 10 µM in [2] was under 50%; in series [3], under 50%; in series [4], over 91%; in series [6], under 50%; in series [8], 51%; in series [11], 51%. Besides, the inhibition at 10 µM was over 91% in [12]; 51% in series [13]; under 50% in series [15]; 51% in [16]; under 50% in series [19]; under 50% in [20]. Moreover, the inhibition at 48 h, 10 µM in series [5], in [7], in series [14] and in series [17] was under 50% each time. Further, the inhibition at 24 h, 10 µM in series [9], in series [10], in series [18] and in [21] was under 50% in each case.
In [1], `CC(C)c1cc(Cc2ccc(OCC(=O)O)cc2)ccc1N` displayed an inhibition of under 50%. Also, the inhibition at 10 µM in series [2], in series [3], in series [4], in series [6], in series [8] and in [11] was under 50% throughout. In addition, the inhibition at 10 µM is under 50% in [12]; under 50% in series [13]; under 50% in [15]; under 40% in series [16]; under 50% in series [19]; under 50% in series [20]. Besides, the inhibition at 48 h, 10 µM in [5], in series [7], in series [14] and in series [17] was under 50% each time. In addition, the inhibition at 24 h, 10 µM in [9], in [10], in series [18] and in [21] was under 50% in each case.
In the case of `CC(=O)Nc1ccc(Cc2ccc(OCC(=O)O)cc2)cc1C(C)C`, in series [1], the inhibition is under 50%. Moreover, the inhibition at 10 µM in series [2], in series [3], in [4], in [6], in series [8] and in series [11] was under 50% each time. Further, the inhibition at 10 µM in series [12] was under 50%; in series [13], under 50%; in series [15], under 50%; in series [16], under 40%; in [19], under 50%; in [20], under 50%. In addition, the inhibition at 48 h, 10 µM in series [5], in series [7], in series [14] and in series [17] was under 50% throughout. Also, the inhibition at 24 h, 10 µM in [9], in series [10], in series [18] and in series [21] was under 50% each time.

(Values after ChEMBL document CHEMBL4680157, “Design, synthesis and biological evaluation of novel TRβ selective agonists sustained by ADME-toxicity analysis” (Eur J Med Chem, 2020).)
